# Values quoted from earlier work, collected in US10154968B2, “Buprenorphine nanoparticle composition and methods thereof” (AUBURN UNIVERSITY, priority 2012, dated 2018).
compound,measurement,setting,value
"CO[C@@]12CC[C@@]3(C[C@@H]1[C@](C)(O)C(C)(C)C)[C@H]1Cc4ccc(O)c5c4[C@@]3(CCN1CC1CC1)[C@H]2O5 [Buprenorphine, (25)-2-[(5R,6R,7R,145)-9α-Cyclopropylmethyl-4,5-epoxy-6,14-ethano-3-hydroxy-6-methoxymorphinan-7-yl]-3,3-dimethylbutan-2-ol]",half-life,background statement,approximately two
same,excreted unchanged in the urine,previous studies,27%
